| SMILES | melting point |
| --- | --- |
| COC(=O)N1CC[C@@H](Nc2ncccc2-c2cnc3[nH]ccc3n2)C1 [Example I-4, (R)-3-[3-(5H-Pyrrolo[2,3-b]pyrazin-2-yl)-pyridin-2-ylamino]-pyrrolidine-1-carboxylic acid methyl ester] | 221 to 224 °C |
| CS(=O)(=O)N1CC[C@@H](Nc2ncccc2-c2cnc3[nH]ccc3n2)C1 [Example I-5, ((R)-1-Methanesulfonyl-pyrrolidin-3-yl)-[3-(5H-pyrrolo[2,3-b]pyrazin-2-yl)-pyridin-2-yl]-amine] | 224 to 226 °C |
| COC(=O)N1CC[C@H](Nc2ncccc2-c2cnc3[nH]ccc3n2)C1 [Example I-10, (S)-3-[3-(5H-Pyrrolo[2,3-b]pyrazin-2-yl)-pyridin-2-ylamino]-pyrrolidine-1-carboxylic acid methyl ester] | 222 to 225 °C |
| CS(=O)(=O)N1CC[C@H](Nc2ncccc2-c2cnc3[nH]ccc3n2)C1 [Example I-11, ((S)-1-Methanesulfonyl-pyrrolidin-3-yl)-[3-(5H-pyrrolo[2,3-b]pyrazin-2-yl)-pyridin-2-yl]-amine] | 222 to 224 °C |
| CC(=O)N1CCCCC(Nc2ncccc2-c2cnc3[nH]ccc3n2)C1 (stereo not shown) [Example I-12, 1-{3-[3-(5H-Pyrrolo[2,3-b]pyrazin-2-yl)-pyridin-2-ylamino]-azepan-1-yl}-ethanone] | 100 to 110 °C |
| COC(=O)N1CCCCC(Nc2ncccc2-c2cnc3[nH]ccc3n2)C1 (stereo not shown) [Example I-13, 3-[3-(5H-Pyrrolo[2,3-b]pyrazin-2-yl)-pyridin-2-ylamino]-azepane-1-carboxylic acid methyl ester] | 90 to 100 °C |
| CS(=O)(=O)N1CCCCC(Nc2ncccc2-c2cnc3[nH]ccc3n2)C1 (stereo not shown) [Example I-14, (1-Methane-sulfonyl-azepan-3-yl)-[3-(5H-pyrrolo[2,3-b]pyrazin-2-yl)-pyridin-2-yl]-amine] | 213 to 216 °C |
| CCS(=O)(=O)N1CC[C@@H](Nc2ncccc2-c2cnc3[nH]ccc3n2)C1 [Example I-16, ((R)-1-Ethanesulfonyl-pyrrolidin-3-yl)-[3-(5H-pyrrolo[2,3-b]pyrazin-2-yl)-pyridin-2-yl]-amine] | 230 to 232 °C |
| CCCS(=O)(=O)N1CC[C@@H](Nc2ncccc2-c2cnc3[nH]ccc3n2)C1 [Example I-17, [(R)-1-(Propane-1-sulfonyl)-pyrrolidin-3-yl]-[3-(5H-pyrrolo[2,3-b]pyrazin-2-yl)-pyridin-2-yl]-amine] | 198 to 200 °C |
| CC(C)S(=O)(=O)N1CC[C@@H](Nc2ncccc2-c2cnc3[nH]ccc3n2)C1 [Example I-18, [(R)-1-(Propane-2-sulfonyl)-pyrrolidin-3-yl]-[3-(5H-pyrrolo[2,3-b]pyrazin-2-yl)-pyridin-2-yl]-amine] | 187 to 189 °C |
| CC(C)CS(=O)(=O)N1CC[C@@H](Nc2ncccc2-c2cnc3[nH]ccc3n2)C1 [Example I-19, [(R)-1-(2-Methyl-propane-1-sulfonyl)-pyrrolidin-3-yl]-[3-(5H-pyrrolo[2,3-b]pyrazin-2-yl)-pyridin-2-yl]-amine] | 134 to 137 °C |
| CCC(=O)N1CC[C@@H](Nc2ncccc2-c2cnc3[nH]ccc3n2)C1 [Example I-20, 1-{(R)-3-[3-(5H-Pyrrolo[2,3-b]pyrazin-2-yl)-pyridin-2-ylamino]-pyrrolidin-1-yl}-propan-1-one] | 105 to 110 °C |
| CCCC(=O)N1CC[C@@H](Nc2ncccc2-c2cnc3[nH]ccc3n2)C1 [Example I-21, 1-{(R)-3-[3-(5H-Pyrrolo[2,3-b]pyrazin-2-yl)-pyridin-2-ylamino]-pyrrolidin-1-yl}-butan-1-one] | 115 to 120 °C |
| CCCS(=O)(=O)N1C[C@@H](C)C[C@H](Nc2ncccc2-c2cnc3[nH]ccc3n2)C1 [Example I-25, [(3S,5S)-5-Methyl-1-(propane-1-sulfonyl)-piperidin-3-yl]-[3-(5H-pyrrolo[2,3-b]pyrazin-2-yl)-pyridin-2-yl]-amine] | 178 to 180 °C |
| CC(C)CCS(=O)(=O)N1CC[C@@H](Nc2ncccc2-c2cnc3[nH]ccc3n2)C1 [Example I-27, [(R)-1-(3-Methyl-butane-1-sulfonyl)-pyrrolidin-3-yl]-[3-(5H-pyrrolo[2,3-b]pyrazin-2-yl)-pyridin-2-yl]-amine] | 160 to 162 °C |
| Cc1ccc(-c2cnc3[nH]ccc3n2)c(NC2CCCN(S(C)(=O)=O)C2)n1 (stereo not shown) [Example I-31, (1-Methane-sulfonyl-piperidin-3-yl)-[6-methyl-3-(5H-pyrrolo[2,3-b]pyrazin-2-yl)-pyridin-2-yl]-amine] | 253 to 255 °C |
| FC(F)(F)CN1CCC[C@H](Nc2ncccc2-c2cnc3[nH]ccc3n2)C1 [Example I-33, [3-(5H-Pyrrolo[2,3-b]pyrazin-2-yl)-pyridin-2-yl]-[(S)-1-(2,2,2-trifluoro-ethyl)-piperidin-3-yl]-amine] | 207 to 209 °C |
| CCS(=O)(=O)N1CCCC(Nc2nc(C)ccc2-c2cnc3[nH]ccc3n2)C1 (stereo not shown) [Example I-34, (1-Ethane-sulfonyl-piperidin-3-yl)-[6-methyl-3-(5H-pyrrolo[2,3-b]pyrazin-2-yl)-pyridin-2-yl]-amine] | 204 to 207 °C |
| Cc1ccc(-c2cnc3[nH]ccc3n2)c(NC2CCCN(S(=O)(=O)CC(C)(C)C)C2)n1 (stereo not shown) [Example I-36, [1-(2,2-Dimethyl-propane-1-sulfonyl)-piperidin-3-yl]-[6-methyl-3-(5H-pyrrolo[2,3-b]pyrazin-2-yl)-pyridin-2-yl]-amine] | 218 to 220 °C |
| CS(=O)(=O)N1CCCC(Nc2ncccc2-c2cnc3[nH]ccc3n2)CC1 (stereo not shown) [Example I-37, (1-Methane-sulfonyl-azepan-4-yl)-[3-(5H-pyrrolo[2,3-b]pyrazin-2-yl)-pyridin-2-yl]-amine] | 215 to 217 °C |
| O=S(=O)(CC1CC1)N1CCC[C@H](Nc2ncccc2-c2cnc3[nH]ccc3n2)C1 [Example I-38, ((S)-1-Cyclopropyl-methanesulfonyl-piperidin-3-yl)-[3-(5H-pyrrolo[2,3-b]pyrazin-2-yl)-pyridin-2-yl]-amine] | 209 to 212 °C |
| CC(=O)N1CCCC(Nc2nc(C)ccc2-c2cnc3[nH]cc(Cl)c3n2)C1 (stereo not shown) [Example I-39, 1-{3-[3-(7-Chloro-5H-pyrrolo[2,3-b]pyrazin-2-yl)-6-methyl-pyridin-2-ylamino]-piperidin-1-yl}-ethanone] | 254 to 259 °C |

— US8618103B2 (priority 2009, dated 2013)
